Where a name gives a salt, the structure may show the parent alone.

For 18 compounds, melting point results are on record in patent publication US6534496B1, “Thermogenic composition and benzazepine thermogenics” (Takeda Chemical Industries, Inc., priority 1997, dated 2003).

The term melting point denotes the temperature, or range, at which the solid turns liquid. For the compound `O=C(CCC1CCN(Cc2cccc(-c3ccccc3)c2)CC1)c1ccc2c(c1)CN(Cc1ccc(F)cc1)CCO2` (as salt: hydrochloride) [Example 99, 1-[4-[(4-Fluorophenyl)methyl]-2,3,4,5-tetrahydro-1,4-benzoxazepin-7-yl]-3-[1-[(3-phenylphenyl)methyl]-4-piperidinyl]-1-propanone Ddihydrochloride], the melting point lay within 187 to 189 °C.

Consider `CCOC(=O)COc1cccc(CN2CCC(CCC(=O)c3ccc4c(c3)CN(Cc3ccc(F)cc3)CCO4)CC2)c1` (as salt: hydrochloride) [Example 103, Ethyl 2-[3-[[4-[3-[4-[(4-fluorophenyl)methyl]-2,3,4,5-tetrahydro-1,4-benzoxazepin-7-yl]-3-oxopropyl]-1-piperidinyl]methyl]phenoxy]ethanoate Dihydrochloride], for which the melting point was in the range of 200 to 203 °C.

Consider `CC(C)(C)c1ccc(CN2CCC(CCC(=O)c3ccc4c(c3)CN(Cc3ccc(F)cc3)CCO4)CC2)cc1` (as salt: hydrochloride) [Example 108, 1-[4-[(4-Fluorophenyl)methyl]-2,3,4,5-tetrahydro-4-benzoxazepin-7-yl]-3-[1-[[4-(tert-butyl)phenyl]methyl]-4-piperidinyl]-1-propanone Dihydrochloride], for which the melting point fell in the range of 240 to 243 °C.

Regarding `Cc1ccccc1CN1CCc2ccc(C(=O)CCCC3CCN(Cc4ccccc4C)CC3)cc2CC1` (as salt: hydrochloride) [Example 127, 4-[1-[(2-Methylphenyl)methyl]-4-piperidinyl]-1-[3-[(2-methylphenyl)methyl]-2,3,4,5-tetrahydro-1H-3-benzazepin-7-yl]-1-butanone Dihydrochloride], the melting point lay within 183 to 186 °C.

`Cc1ccccc1CN1CCc2ccc(C(=O)CCCC3CCN(Cc4ccccc4)CC3)cc2CC1` (as salt: hydrochloride) [Example 129, 1-[3-[(2-Methylphenyl)methyl]-2,3,4,5-tetrahydro-1H-3-benzazepin-7-yl]-4-[1-(phenylmethyl)-4-piperidinyl]-1-butanone Dihydrochloride] came in with a melting point of 191 to 194 °C.

`Cc1ccccc1CN1CCc2ccc(C(=O)CCCC3CCN(Cc4cccc(Cl)c4)CC3)cc2CC1` (as salt: hydrochloride) [Example 130] came in with a melting point of 180 to 183 °C.

Consider `COC(=O)c1cccc(CN2CCC(CCCC(=O)c3ccc4c(c3)CCN(Cc3ccccc3)CC4)CC2)c1` (as salt: hydrochloride) [Example 152, Methyl 3-[[4-[4-[3-(phenylmethyl)-2,3,4,5-tetrahydro,-1H-3-benzazepin-7-yl]-4-oxobutyl]-1-piperidinyl]methyl]benzoate Dihydrochloride], for which the melting point was 194 to 200 °C.

In the case of `CCOC(=O)C(C)(C)c1cccc(CN2CCC(CCCC(=O)c3ccc4c(c3)CCN(Cc3ccccc3)CC4)CC2)c1` (as salt: hydrochloride) [Example 153, Ethyl 2-methyl-2-[3-[[4-[4-[3-(phenylmethyl)-2,3,4,5-tetrahydro-1H-3-benzazepin-7-yl]-4-oxobutyl]-1-piperidinyl]methyl]phenyl]propionate Dihydrochloride], the melting point lay within 146 to 148 °C.

For the compound `O=C(CCCC1CCN(Cc2cccc([N+](=O)[O-])c2)CC1)c1ccc2c(c1)CCN(Cc1ccccc1)CC2` (as salt: hydrochloride) [Example 154, 4-[1-[(3-Nitrophenyl)methyl]-4-piperidinyl-1-(3-(phenylmethyl)-2,3,4,5-tetrahydro-1H-3-benzazepin-7-yl]-1-butanone Dihydrochloride], the melting point was 239 to 244 °C (dec.).

Consider `COc1cccc(CN2CCC(CCCC(=O)c3ccc4c(c3)CCN(Cc3ccccc3)CC4)CC2)c1` (as salt: hydrochloride) [Example 156, 4-[1-[(3-Methoxyphenyl)methyl]-4-piperidinyl]-1-[3-(phenylmethyl)-2,3,4,5-tetrahydro-1H-3-benzazepin-7-yl]-1-butanone Dihydrochloride], for which the melting point was 215 to 218 °C (dec.).

Consider `O=C(CCCC1CCN(Cc2ccccc2Cl)CC1)c1ccc2c(c1)CCN(Cc1ccccc1)CC2` (as salt: hydrochloride) [Example 178, 4-[1-[(2-Chlorophenyl)methyl]-4-piperidinyl]-1-[3-(phenylmethyl)-2,3,4,5-tetrahydro-1H-3-benzazepin-7-yl]-1-butanone Dihydrochloride], for which the melting point is 226 to 229 °C (dec.).

`CC(=O)Nc1cccc(CN2CCC(CCCC(=O)c3ccc4c(c3)CCN(Cc3ccccc3)CC4)CC2)c1` (as salt: hydrochloride) [Example 179, N-[3-[[4-[4-[3-(Phenylmethyl)-2,3,4,5-tetrahydro-1H-3-benzazepin-7-yl]-4-oxobutyl]-1-piperidinyl]methyl]phenyl]acetamide Dihydrochloride]: the melting point was 179 to 187 °C.

With `Cc1ccc(CN2CCc3ccc(C(=O)CCCC4CCN(Cc5ccc(F)cc5)CC4)cc3CC2)cc1` (as salt: hydrochloride) [Example 192, 4-[1-[(4-Fluorophenyl)methyl]-4-piperidinyl]-1-[3-[(4-methylphenyl)methyl]-2,3,4,5-tetrahydro-1H-3-benzazepin-7-yl]-1-butanone Dihydrochloride], the melting point was in the range of 225 to 228 °C.

`Cc1ccc(CN2CCC(CCCC(=O)c3ccc4c(c3)CCN(Cc3ccccc3[N+](=O)[O-])CC4)CC2)cc1` (as salt: hydrochloride) [Example 198, 4-[1-[(4-Methylphenyl)methyl]-4-piperidinyl]-1-[3-[(2-nitrophenyl)methyl]-2,3,4,5-tetrahydro-1H-3-benzazepin-7-yl]-1-butanone Dihydrochloride]: the melting point is 164 to 167 °C.

Compound `Cc1ccc(CN2CCC(CCCC(=O)c3ccc4c(c3)CCN(Cc3cccc(Cl)c3)CC4)CC2)cc1` (as salt: hydrochloride) [Example 202, 1-[3-[(3-Chlorophenyl)methyl]-2,3,4,5-tetprahydro-1H-3-benzazepin-7-yl]-4-[1-[(4-methylphenyl)methyl]-4-piperidinyl]-1-butanone Dihydrochloride] displayed a melting point of 195 to 198 °C.

In turn, `O=C(CCCCC1CCN(Cc2ccccc2)CC1)c1ccc2c(c1)CCN(Cc1ccccc1)CC2` (as salt: hydrochloride) [Example 209, 5-[1-(Phenylmethyl)-4-piperidinyl]-1-[3-(phenylmethyl)-2,3,4,5-tetrahydro-1H-3-benzazepin-7-yl]-1-pentanone Dihydrochloride] had a melting point of 208 to 210 °C.

As to `Cc1ccccc1CN1CCC(CCCC(=O)c2ccc3c(c2)CCNCC3)CC1` (as salt: hydrochloride) [Example 236, 4-[1-[(2-Methylphenyl)methyl]-4-piperidinyl]-1-(2,3,4,5-tetrahydro-1H-3-benzazepin-7-yl)-1-butanone Dihydrochloride], the melting point is 213 to 216 °C (dec.).

Compound `CCN(CC)CCN1CCc2ccc(C(=O)CCCC3CCN(Cc4ccccc4C)CC3)cc2CC1` (as salt: hydrochloride) [Example 244, 1-[3-(2-Diethyaminoethyl)-2,3,4,5-tetrahydro-1H-3-benzazepin-7-yl]-4-[1-[(2-methylphenyl)methyl]-4-piperidinyl]-1-butanone Trihydrochloride] came in with a melting point of 211 to 213 °C.
